Experimental data reported in patent US9708293B2, “N-(pyridin-2-yl)pyrimidin-4-amine derivatives containing a sulfone group” (BAYER PHARMA AKTIENGESELLSCHAFT, priority 2012, dated 2017).

What was measured:
NCI-H460 cells = assay: Proliferation assay, NCI-H460; assay type: cell-based; conditions: Homo sapiens, NCI-H460, 96 h; 4 days, crystal violet; read-out: Inhibition of NCI-H460 cell proliferation IC50
Procedure: (§1) Cultivated tumour cells (HeLa, human cervical tumour cells, ATCC CCL-2; NCI-H460, human non-small cell lung carcinoma cells, ATCC HTB-177; A2780, human ovarian carcinoma cells, ECACC #93112519; DU 145, hormone-independent human prostate carcinoma cells, ATCC HTB-81; HeLa-MaTu-ADR, multidrug-resistant human cervical carcinoma cells, EPO-GmbH Berlin; Caco-2, human colorectal carcinoma cells, ATCC HTB-37; B16F10, mouse melanoma cells, ATCC CRL-6475) were plated at a density of 5,000 cells/well (DU145, HeLa-MaTu-ADR), 3,000 cells/well (NCI-H460, HeLa), 2,500 cells/well (A2780), 1,500 cells/well (Caco-2), or 1,000 cells/well (B16F10) in a 96-well multititer plate in 200 μL of their respective growth medium supplemented 10% fetal calf serum. After 24 hours, the cells of one plate (zero-point plate) were stained with crystal violet (see below), while the medium of the other plates was replaced by fresh culture medium (200 μl), to which the test substances were added in various concentrations (0 μM, as well as in the range of 0.001-10 μM; the final concentration of the solvent dimethyl sulfoxide was 0.5%). The cells were incubated for 4 days in the presence of test substances. Cell proliferation was determined by staining the cells with crystal violet: the cells were fixed by adding 20 μl/measuring point of an 11% glutaric aldehyde solution for 15 minutes at room temperature. After three washing cycles of the fixed cells with water, the plates were dried at room temperature. The cells were stained by adding 100 μl/measuring point of a 0.1% crystal violet solution (pH 3.0). After three washing cycles of the stained cells with water, the plates were dried at room temperature. The dye was dissolved by adding 100 μl/measuring point of a 10% acetic acid solution. The extinction was determined by photometry at a wavelength of 595 nm. The change of cell number, in percent, was calculated by normalization of the measured values to the extinction values of the zero-point plate (=0%) and the extinction of the untreated (0 μm) cells (=100%). […]

HeLa-MaTu-ADR cells = assay: Proliferation assay, HeLa-MaTu-ADR; assay type: cell-based; conditions: Homo sapiens, 96 h; 4 days, crystal violet; read-out: Inhibition of HeLa-MaTu-ADR cell proliferation IC50
Procedure: as §1

HeLa cells = assay: Proliferation assay, HeLa; assay type: cell-based; conditions: Homo sapiens, 96 h, 4 days, crystal violet, read-out: Inhibition of HeLa cell proliferation IC50
Procedure: as §1

CDK9/CycT1 = target: T1, CDK9/CycT1 (Homo sapiens, UniProt P50750); assay: CDK9/CycT1 kinase assay (Method 1a); assay type: biochemical; conditions: 10 μM ATP
T1 construct: Recombinant full-length His-tagged human CDK9 and CycT1; His; purchased Invitrogen PV4131; host or cells: insect cells
T1 sequence (P50750 whole entry): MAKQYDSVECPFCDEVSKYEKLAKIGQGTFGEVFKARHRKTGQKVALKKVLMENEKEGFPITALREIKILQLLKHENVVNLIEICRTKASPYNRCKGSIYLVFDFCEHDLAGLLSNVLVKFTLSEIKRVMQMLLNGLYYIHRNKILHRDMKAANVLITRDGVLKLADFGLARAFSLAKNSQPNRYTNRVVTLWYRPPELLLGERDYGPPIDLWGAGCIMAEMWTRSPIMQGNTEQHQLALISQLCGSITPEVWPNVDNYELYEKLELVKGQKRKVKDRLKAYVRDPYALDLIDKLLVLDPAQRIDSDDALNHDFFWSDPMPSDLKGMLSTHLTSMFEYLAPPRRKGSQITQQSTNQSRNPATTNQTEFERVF
T1 sequence (O60563 whole entry partner): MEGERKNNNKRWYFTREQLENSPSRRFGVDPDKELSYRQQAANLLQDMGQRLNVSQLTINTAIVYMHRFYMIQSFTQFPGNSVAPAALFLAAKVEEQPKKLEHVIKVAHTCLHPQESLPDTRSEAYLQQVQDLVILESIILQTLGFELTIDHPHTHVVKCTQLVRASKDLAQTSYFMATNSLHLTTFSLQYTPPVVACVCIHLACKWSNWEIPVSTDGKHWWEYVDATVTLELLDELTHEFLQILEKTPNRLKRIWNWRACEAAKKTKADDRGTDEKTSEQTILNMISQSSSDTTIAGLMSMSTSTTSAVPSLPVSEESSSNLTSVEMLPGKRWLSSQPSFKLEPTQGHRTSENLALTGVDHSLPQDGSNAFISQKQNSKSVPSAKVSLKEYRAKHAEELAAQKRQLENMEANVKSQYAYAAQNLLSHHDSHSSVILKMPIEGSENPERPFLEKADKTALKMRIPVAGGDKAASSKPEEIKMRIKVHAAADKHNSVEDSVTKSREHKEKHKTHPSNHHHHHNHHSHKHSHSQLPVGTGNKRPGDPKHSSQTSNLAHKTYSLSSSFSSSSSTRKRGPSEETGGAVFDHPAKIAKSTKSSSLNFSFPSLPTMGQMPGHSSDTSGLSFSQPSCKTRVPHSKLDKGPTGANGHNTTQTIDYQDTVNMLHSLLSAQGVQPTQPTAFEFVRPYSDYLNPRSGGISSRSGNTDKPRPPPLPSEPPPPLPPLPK
From the text: 1a. CDK9/CycT1 Kinase Assay:
CDK9/CycT1—inhibitory activity of compounds of the present invention was quantified employing the CDK9/CycT1 TR-FRET assay as described in the following paragraphs:
Recombinant full-length His-tagged human CDK9 and CycT1, expressed in insect cells and purified by Ni-NTA affinity chromatography, were purchased from Invitrogen (Cat. No PV4131). As substrate for the kinase reaction biotinylated peptide biotin-Ttds-YISPLKSPYKISEG (C-terminus in amid form) was used which can be purchased e.g. form the company JERINI Peptide Technologies (Berlin, Germany). For the assay 50 nl of a 100 fold concentrated solution of the test compound in DMSO was pipetted into a black low volume 384 well microtiter plate (Greiner Bio-One, Frickenhausen, Germany), 2 μl of a solution of CDK9/CycT1 in aqueous assay buffer [50 mM Tris/HCl pH 8.0, 10 mM MgCl2, 1.0 mM dithiothreitol, 0.1 mM sodium ortho-vanadate, 0.01% (v/v) Nonidet-P40 (Sigma)] were added and the mixture was incubated for 15 min at 22° C. to allow pre-binding of the test compounds to the enzyme before the start of the kinase reaction. Then the kinase reaction was started by the addition of 3 μl of a solution of adenosine-tri-phosphate (ATP, 16.7 μM=>final conc. in the 5 μl assay volume is 10 μM) and substrate (1.67 μM=>final conc. in the 5 μl assay volume is 1 μM) in assay buffer and the resulting mixture was incubated for a reaction time of 25 min at 22° C. […]
The resulting mixture was incubated 1 h at 22° C. to allow the formation of complex between the phosphorylated biotinylated peptide and the detection reagents. Subsequently the amount of phosphorylated substrate was evaluated by measurement of the resonance energy transfer from the Eu-chelate to the streptavidine-XL. Therefore, the fluorescence emissions at 620 nm and 665 nm after excitation at 350 nm was measured in a HTRF reader, e.g. a Rubystar (BMG Labtechnologies, Offenburg, Germany) or a Viewlux (Perkin-Elmer). […]

IC50 (NCI-H460 cells) [nM]	IC50 (HeLa-MaTu-ADR cells) [nM]	IC50 (HeLa cells) [nM]	IC50 (CDK9/CycT1) [nM]	SMILES
95	54	76	–	COc1cc(F)ccc1-c1cc(Nc2cc(CS(C)(=O)=O)cc(C)n2)ncn1 [Example 2, 6-(4-Fluoro-2-methoxyphenyl)-N-{6-methyl-4-[(methylsulfonyl)methyl]pyridin-2-yl}pyrimidin-4-amine]
317	212	101	3	COc1cc(F)ccc1-c1cc(Nc2cc(CS(C)(=O)=O)ccn2)ncn1 [Example 1, 6-(4-Fluoro-2-methoxyphenyl)-N-{4-[(methylsulfonyl)methyl]pyridin-2-yl}pyrimidin-4-amine]
55	33	24	4	COc1cc(F)ccc1-c1cc(Nc2cc(CS(C)(=O)=O)cc(C(F)(F)F)n2)ncn1 [Example 3, 6-(4-Fluoro-2-methoxyphenyl)-N-{4-[(methylsulfonyl)methyl]-6-(trifluoromethyl)pyridin-2-yl}pyrimidin-4-amine]
–	–	–	3	COc1cc(F)ccc1-c1cc(Nc2cc(CS(C)(=O)=O)cc(F)n2)ncn1 [Example 4, 6-(4-Fluoro-2-methoxyphenyl)-N-{6-fluoro-4-[(methylsulfonyl)methyl]pyridin-2-yl}pyrimidin-4-amine]
